Reference: PubChem BioAssay (NCI)
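1) Cells in 96-well plates. 2) Compound, 48 h, 5 concentrations. 3) Linear interpolation between surrounding doses. 4) Unreached endpoint = highest concentration. At the GI50, growth is halved. The concentration for full growth arrest is given as TGI.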

Tests used:
Assay in all cases: DTP human tumour cell line panel, 48 h
786-0 renal = system: 786-0 renal
A498 renal = system: A498 renal
A549 NSCLC = system: A549 NSCLC
ACHN renal = system: ACHN renal
BT-549 breast = system: BT-549 breast
CCRF-CEM leukemia = system: CCRF-CEM leukemia
COLO 205 colon = system: COLO 205 colon
EKVX NSCLC = system: EKVX NSCLC
HCC-2998 colon = system: HCC-2998 colon
HCT-116 colon = system: HCT-116 colon
HCT-15 colon = system: HCT-15 colon
HL-60(TB) leukemia = system: HL-60(TB) leukemia
HOP-62 NSCLC = system: HOP-62 NSCLC
HOP-92 NSCLC = system: HOP-92 NSCLC
HS 578T breast = system: HS 578T breast
HT29 colon = system: HT29 colon
IGROV1 ovarian = system: IGROV1 ovarian
K-562 leukemia = system: K-562 leukemia
KM12 colon = system: KM12 colon
LOX IMVI melanoma = system: LOX IMVI melanoma
M14 melanoma = system: M14 melanoma
MALME-3M melanoma = system: MALME-3M melanoma
MCF7 breast = system: MCF7 breast
MDA-MB-231 breast = system: MDA-MB-231 breast
MDA-MB-435 = system: MDA-MB-435
MOLT-4 leukemia = system: MOLT-4 leukemia
NCI-H226 lung = system: NCI-H226 lung
NCI-H460 lung = system: NCI-H460 lung
NCI-H522 lung = system: NCI-H522 lung
OVCAR-3 ovarian = system: OVCAR-3 ovarian
OVCAR-4 ovarian = system: OVCAR-4 ovarian
OVCAR-5 ovarian = system: OVCAR-5 ovarian
OVCAR-8 ovarian = system: OVCAR-8 ovarian
PC-3 prostate = system: PC-3 prostate
RPMI-8226 leukemia = system: RPMI-8226 leukemia
RXF 393 renal = system: RXF 393 renal
SF-268 CNS = system: SF-268 CNS
SF-295 CNS = system: SF-295 CNS
SF-539 CNS = system: SF-539 CNS
SK-MEL-2 melanoma = system: SK-MEL-2 melanoma
SK-MEL-28 melanoma = system: SK-MEL-28 melanoma
SK-MEL-5 melanoma = system: SK-MEL-5 melanoma
SK-OV-3 ovarian = system: SK-OV-3 ovarian
SN12C renal = system: SN12C renal
SNB-19 CNS = system: SNB-19 CNS
SNB-75 CNS = system: SNB-75 CNS
SR leukemia = system: SR leukemia
SW-620 colon = system: SW-620 colon
T-47D breast = system: T-47D breast
TK-10 renal = system: TK-10 renal
U251 CNS = system: U251 CNS
UACC-257 melanoma = system: UACC-257 melanoma
UACC-62 melanoma = system: UACC-62 melanoma
UO-31 renal = system: UO-31 renal

Which results are given for Cc1cc(N(CCNc2ccnc3cc(Cl)ccc23)Cc2cccs2)nc(Cl)n1?
GI50 (786-0 renal): 429 nM; TGI (786-0 renal): 1630 nM; GI50 (A498 renal): 1680 nM; TGI (A498 renal): 4150 nM; GI50 (A549 NSCLC): 1430 nM; TGI (A549 NSCLC): 4500 nM; GI50 (ACHN renal): 1440 nM; TGI (ACHN renal): 2750 nM; GI50 (BT-549 breast): 1870 nM; TGI (BT-549 breast): 3940 nM; GI50 (CCRF-CEM leukemia): 2070 nM; TGI (CCRF-CEM leukemia): 5410 nM; GI50 (COLO 205 colon): 1720 nM; TGI (COLO 205 colon): 3540 nM; GI50 (EKVX NSCLC): 2080 nM; TGI (EKVX NSCLC): 7380 nM; GI50 (HCC-2998 colon): 1740 nM; TGI (HCC-2998 colon): 3400 nM; GI50 (HCT-116 colon): 526 nM; TGI (HCT-116 colon): 2000 nM; GI50 (HCT-15 colon): 1490 nM; TGI (HCT-15 colon): 2990 nM; GI50 (HL-60(TB) leukemia): 1990 nM; TGI (HL-60(TB) leukemia): 3840 nM; GI50 (HOP-62 NSCLC): 1650 nM; TGI (HOP-62 NSCLC): 3650 nM; GI50 (HOP-92 NSCLC): 1160 nM; TGI (HOP-92 NSCLC): 2610 nM; GI50 (HS 578T breast): 2100 nM; TGI (HS 578T breast): 4680 nM; GI50 (HT29 colon): 1450 nM; TGI (HT29 colon): 3100 nM; GI50 (IGROV1 ovarian): 1640 nM; TGI (IGROV1 ovarian): 3280 nM; GI50 (K-562 leukemia): 1020 nM; TGI (K-562 leukemia): 3470 nM; GI50 (KM12 colon): 1690 nM; TGI (KM12 colon): 3290 nM; GI50 (LOX IMVI melanoma): 1470 nM; TGI (LOX IMVI melanoma): 2890 nM; GI50 (M14 melanoma): 1540 nM; TGI (M14 melanoma): 3190 nM; GI50 (MALME-3M melanoma): 1620 nM; TGI (MALME-3M melanoma): 3170 nM; GI50 (MCF7 breast): 1530 nM; TGI (MCF7 breast): 3130 nM; GI50 (MDA-MB-231 breast): 1490 nM; TGI (MDA-MB-231 breast): 3060 nM; GI50 (MDA-MB-435): 1560 nM; TGI (MDA-MB-435): 3050 nM; GI50 (MOLT-4 leukemia): 2480 nM; TGI (MOLT-4 leukemia): 5570 nM; GI50 (NCI-H226 lung): 1830 nM; TGI (NCI-H226 lung): 3830 nM; GI50 (NCI-H460 lung): 1130 nM; TGI (NCI-H460 lung): 2580 nM; GI50 (NCI-H522 lung): 1440 nM; TGI (NCI-H522 lung): 3550 nM; GI50 (OVCAR-3 ovarian): 1430 nM; TGI (OVCAR-3 ovarian): 2830 nM; GI50 (OVCAR-4 ovarian): 1390 nM; TGI (OVCAR-4 ovarian): 2940 nM; GI50 (OVCAR-5 ovarian): 1640 nM; TGI (OVCAR-5 ovarian): 3530 nM; GI50 (OVCAR-8 ovarian): 2210 nM; TGI (OVCAR-8 ovarian): 5330 nM; GI50 (PC-3 prostate): 1690 nM; TGI (PC-3 prostate): 3940 nM; GI50 (RPMI-8226 leukemia): 1970 nM; TGI (RPMI-8226 leukemia): 4550 nM; GI50 (RXF 393 renal): 1450 nM; TGI (RXF 393 renal): 2920 nM; GI50 (SF-268 CNS): 1830 nM; TGI (SF-268 CNS): 4040 nM; GI50 (SF-295 CNS): 1320 nM; TGI (SF-295 CNS): 2770 nM; GI50 (SF-539 CNS): 1830 nM; TGI (SF-539 CNS): 3290 nM; GI50 (SK-MEL-2 melanoma): 1840 nM; TGI (SK-MEL-2 melanoma): 3540 nM; GI50 (SK-MEL-28 melanoma): 1610 nM; TGI (SK-MEL-28 melanoma): 3180 nM; GI50 (SK-MEL-5 melanoma): 1740 nM; TGI (SK-MEL-5 melanoma): 3170 nM; GI50 (SK-OV-3 ovarian): 1800 nM; TGI (SK-OV-3 ovarian): 3240 nM; GI50 (SN12C renal): 1580 nM; TGI (SN12C renal): 3190 nM; GI50 (SNB-19 CNS): 2110 nM; TGI (SNB-19 CNS): 5620 nM; GI50 (SNB-75 CNS): 1500 nM; TGI (SNB-75 CNS): 2900 nM; GI50 (SR leukemia): 1020 nM; TGI (SR leukemia): 4020 nM; GI50 (SW-620 colon): 1400 nM; TGI (SW-620 colon): 3000 nM; GI50 (T-47D breast): 1120 nM; TGI (T-47D breast): 2880 nM; GI50 (TK-10 renal): 1620 nM; TGI (TK-10 renal): 2990 nM; GI50 (U251 CNS): 893 nM; TGI (U251 CNS): 2280 nM; GI50 (UACC-257 melanoma): 1840 nM; TGI (UACC-257 melanoma): 3560 nM; GI50 (UACC-62 melanoma): 1690 nM; TGI (UACC-62 melanoma): 3190 nM; GI50 (UO-31 renal): 1300 nM; TGI (UO-31 renal): 2600 nM
